Data set [1] in a line: PBS solubility (kinetic solubility from DMSO stocks). In kind it is physicochemical. Conditions: 22 °C, aqueous buffer, kinetic from dmso stock; 1x PBS pH 7.4, 1.0% DMSO, 24-hour incubation at ambient temperature. The procedure, abridged: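 Kinetic solubility in 1× PBS pH 7.4 with 1.0% final DMSO, maximum theoretical concentration 100 μM from 10 mM stock. After 24 h at ambient temperature (20.8-24.0 °C) the samples were vacuum-filtered and filtrates quantified by nitrogen detection against a calibration curve. Values were background-corrected and reported in μM and μg/mL.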

Data set [2] in a line: MDR1/BCRP assay: permeability in cPgp-KO-MDCK-WT cells. The format is in vitro ADME. The settings on record: dog, pH 7.4. The procedure:
The cells were maintained in an incubator at 37° C., 90% humidity, and 5% CO2 until reaching confluence over 5 days in 96-well transwell plates. Experiments were conducted using an HBSS donor buffer (Invitrogen) containing 10 mM HEPES and 15 mM glucose, adjusted to pH 7.4. The receiver well contained HBSS buffer supplemented with 1% BSA, 10 mM HEPES, and 15 mM glucose, and the pH was adjusted to 7.4. TEER values were measured to assess membrane integrity after an initial equilibration with BSA-free transport buffer for 15 minutes. The experiment was started by adding dosing solutions containing test compounds at 1 μM. Cells were dosed on the apical (A) side or basolateral (B) side at 100 μl and 200 μl, respectively, to determine forward (A to B) and reverse (B to A) permeability. At the 2-hour time point, 50 μl samples were collected from the receiver compartment. Each compound was tested in 2 separate replicate wells for each condition. All samples were immediately collected into plates, and 50 μL of acetonitrile was added. Subsequently, 350 μl of 30:70 methanol: acetonitrile containing internal standard was added to precipitate proteins and stabilize the test compounds. To test for non-specific binding and compound instability, the total amount of the drug was quantified at the end of the experiment and compared to the material present in the original dosing solution as a percentage of the recovery. All samples were analyzed by LC-MS/MS using electrospray ionization.
The apparent permeability, Papp, and % recovery were calculated as follows: […]

The nature of data set [3]: Cell viability assay (CellTiter-Glo, 7 days), HCT116 WT. The format is cell-based. Conditions: human, HCT116 WT cells, 7 days of treatment, CTG. The essentials: (§1)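 First, compounds are serially diluted in DMSO and dispensed into plates, which are frozen until seeding. Next, cells are added and incubated 7 days at 37 °C, 5% CO2, 90% humidity. Finally, CellTiter-Glo reagent is added and luminescence is measured to derive CC50.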

Data set [4] is described as follows: Hepatocyte stability assay, human. The format is in vitro ADME. Conditions: human hepatocytes, 1 μM. The method, then: BioreclamationIVT (Baltimore, MD) provided the cryopreserved hepatocytes, hepatocyte thawing (HT) medium, and Krebs-Henseleit buffer (KHB) medium. The stock solution concentration was 1 M in DMSO and was then diluted further in acetonitrile/water (1:1 v/v). All other chemicals were purchased from Sigma-Aldrich (St. Louis, MO) or Thermo Fisher Scientific (Waltham, MA).
The quench solution used to stop reactions in the hepatocyte incubations was comprised of 100% (v/v) acetonitrile. Internal Standard/Quench (IS/Q) solution used to stop reactions with the positive control also contained 200 nM Labetalol.
Metabolic Stability in Cryopreserved Hepatocytes: Test compounds, or the positive control metabolic substrate, was incubated in suspensions of cryopreserved hepatocytes at a final concentration of 1 μM. Vials containing cryopreserved hepatocytes were removed from liquid nitrogen and immediately immersed in a 37° C. water bath. The vials were swirled gently until the contents had thawed. They were then immediately emptied into 48 mL of pre-warmed thawing medium in a 50 mL conical tube. Cells remaining in the vial were re-suspended with 1.0 mL of pre-warmed thawing medium and added to the conical tube. The tube was capped and then gently inverted several times to re-suspend the hepatocytes. The cell suspension was centrifuged at 500×g for 10 minutes at room temperature and the supernatant discarded. The cell pellet was loosened by gently swirling the centrifuge tube. Non-supplemented KHB medium was added to obtain the appropriate target cell density. The viabilities of all cell preparations were ≥85%, assessed by Trypan blue dye exclusion.
For incubations, aliquots of hepatocyte suspension (250 μL containing a cell concentration of 2×10^6 cells/mL) were added to 250 μL of 2 μM substrate (test compound or positive control) in supplemented KHB in duplicate wells in a 24-well plate. Final concentration in the incubations were 1×10^6 cells/mL and 1 μM substrate. A cell-free control incubation (KHB only) was also included. The incubations were carried out with gentle shaking in a 37° C. incubator under a humid atmosphere of 95% air/5% CO2 (v/v). Aliquots (100 μL) were removed after 0, 1, 3, and 6 hours and added to 200 μL quenching solution. The samples were then placed on a shaker for 10 min followed by centrifugation at 3000×g for 20 min. The supernatant was transferred to a new plate and diluted with 100 μL of water to reduce the organic content and then placed on a shaker for 10 mins. Samples were injected and analyzed with methods described below.
Liquid Chromatography: Quantification of positive control and test compound was performed by analyte/internal standard peak area ratios (PAR) measured on a Thermo Scientific™ Q Exactive™ Hybrid Quadrupole-Orbitrap Mass Spectrometer MS/MS with an electrospray interface operating in positive ion mode. The mass spectrometer was coupled to a Dionex Ultimate® 3000 HPLC system. Samples (10 μL aliquots) were injected with a Leap Technologies HTC PAL autosampler. For positive control, the column used was a Thermo Scientific™ Hypersil GOLD™ HPLC column ([…], 50×2.1 mm). Mobile phase A consisted of 95% (v/v) water, 5% (v/v) acetonitrile, and contained 0.1% (v/v) formic acid (FA). Mobile phase B consisted of 95% (v/v) acetonitrile, 5% (v/v) water, and contained 0.1% (v/v) FA. Elution was achieved, at a flow rate of 0.5 mL/min, by a series of linear gradients: initial condition was 5% B at 0 min, isocratic for 20 seconds; then linear gradient to 95% B over 90 seconds, followed by isocratic for 60 seconds at 95% B, and re-equilibrated to initial conditions over 70 seconds.
Metabolic stabilities of positive control and test compound were determined by measuring the rates of disappearance of the parent with time by determining the % of parent remaining at time t (Ct) {Obach 1997}.
Data (% of parent remaining) were plotted on a semi-log scale and fitted using an exponential fit: […]

Data set [5] deals with HCT116 MTAP-deleted cell lines. Put plainly: Cell viability assay (CellTiter-Glo, 7 days), HCT116 MTAP-deleted. The format is cell-based. The settings on record: for Selectivity: HCT116 WT CC50 versus HCT116 MTAP^del CC50; for plasma-adjusted CC50 (paCC50): paCC50 = CC50-HCT116-MTAP^del * (% free CCM/% free human plasma); for CC50: Homo sapiens, HCT116 MTAP-deleted. The essentials:
as §1
(In general: Cellular ATP, detected with luciferase, serves as a proxy for viable cell number.)

Setting [6] is: HCT-116, 168 h, 7 days of treatment, CTG, read-out: CC50-HCT116-MTAP^del.
Setting [7] is: HCT-116, cell viability, class symbols, read-out: CC50.

Values after ≈ are worked out from the molar mass of the structure shown. Read-outs that look alike come from different tables or passages of the source.

One may read the solubility as the dissolved amount per volume that the medium holds. A lower solubility goes with little dissolved substance. For orientation: Papp A→B means how fast a substance crosses the layer from the apical side. A low value points to poor permeation. A word on the CC50: it is the concentration that lowers cell viability or growth by half. The molecule `[2H]C1([2H])CC[C@@H]2Oc3cc(C(F)(F)F)ccc3[C@@H]2N1C(=O)c1cc2c(cc1F)nc(N)c1cncn12` [Ff-121, (4-amino-7-fluoroimidazo[1,5-a]quinoxalin-8-yl)((4aS,9bS)-7-(trifluoromethyl)-3,4,4a,9b-tetrahydrobenzofuro[3,2-b]pyridin-1(2H)-yl-2,2-d2)methanone] returned a solubility at 24 h in data set [1] of 4 µM (≈ 1.89 µg/mL). In data set [2], this molecule came in with an apparent permeability from apical to basolateral (Papp A→B) at 2 h, 1 µM of 15.1 ×10⁻⁶ cm/s. The molecule further gave a CC50 at 7 days in data set [3] of 459 nM. In addition, in data set [4], the “Human Predicted Hepatocyte CL” value was 8 mL/min/kg. This molecule also displayed a Selectivity in data set [5] of 153. Besides, the plasma-adjusted CC50 (paCC50) in data set [5] (HCT-116) is 106 nM. Moreover, the CC50 was 3 nM in data set [5] (setting [6]) and less than 100 nM in data set [5] (setting [7]).
The molecule `Cc1ncc2c(N)nc3cnc(C(=O)N4CCC[C@@H]5Oc6cc(C(F)(F)F)ccc6[C@@H]54)cc3n12` [Ff-344, (4-amino-1-methylimidazo[1,5-a]pyrido[3,4-e]pyrazin-8-yl)((4aS,9bS)-7-(trifluoromethyl)-3,4,4a,9b-tetrahydrobenzofuro[3,2-b]pyridin-1(2H)-yl)methanone] showed a solubility at 24 h in data set [1] of less than 1 µM. Also, the Papp A→B at 2 h, 1 µM in data set [2] worked out at 14.7 ×10⁻⁶ cm/s. In addition, the CC50 at 7 days in data set [3] was found to be 2300 nM. Moreover, in data set [4], the “Human Predicted Hepatocyte CL” value is 1.2 mL/min/kg. In addition, in data set [5], the Selectivity is recorded as 85. The molecule also showed a plasma-adjusted CC50 (paCC50) in data set [5] (HCT-116) of 476 nM. Moreover, the CC50 was 27 nM in data set [5] (setting [6]) and less than 100 nM in data set [5] (setting [7]).
`Nc1nc2cc(F)c(C(=O)N3CC[C@H]4C[C@@H]3c3ccc(C(F)(F)F)nc3O4)cc2n2cncc12` [Ff-366, (4-amino-7-fluoroimidazo[1,5-a]quinoxalin-8-yl)((2S,6R)-9-(trifluoromethyl)-3,4-dihydro-2H-2,6-methanopyrido[2,3-b][1,5]oxazocin-5(6H)-yl)methanone] returned a solubility at 24 h in data set [1] of 25.2 µM (≈ 11.9 µg/mL). The Papp A→B at 2 h, 1 µM in data set [2] worked out at 9 ×10⁻⁶ cm/s. Further, in data set [3], the CC50 at 7 days worked out at 2170 nM. Moreover, in data set [4], the “Human Predicted Hepatocyte CL” value was 0.83 mL/min/kg. In addition, the Selectivity in data set [5] is recorded as 75. The plasma-adjusted CC50 (paCC50) in data set [5] (HCT-116) came out at 206 nM. For the same molecule, the CC50 in data set [5] (setting [6]) is 29 nM; in data set [5] (setting [7]) it was less than 100 nM.
`Cc1ncc2c(N)nc3cnc(C(=O)N4CC[C@H]5C[C@@H]4c4cc(F)c(C(F)(F)F)cc4O5)cc3n12` [Ff-696, (4-amino-1-methylimidazo[1,5-a]pyrido[3,4-e]pyrazin-8-yl)((2S,6R)-8-fluoro-9-(trifluoromethyl)-3,4-dihydro-2H-2,6-methanobenzo[b][1,5]oxazocin-5(6H)-yl)methanone] came in with a solubility at 24 h in data set [1] of 2.9 µM (≈ 1.41 µg/mL). The molecule further gave an apical-to-basolateral permeability (Papp A→B) at 2 h, 1 µM in data set [2] of 21 ×10⁻⁶ cm/s. Further, the midpoint of cytotoxicity in data set [3], the CC50 at 7 days, lay at 1410 nM. Also, the “Human Predicted Hepatocyte CL” value in data set [4] was 4.5 mL/min/kg. Further, the Selectivity in data set [5] turned out to be 83. Also, the plasma-adjusted CC50 (paCC50) in data set [5] (HCT-116) came out at 198 nM. Also, the CC50 in data set [5] (setting [6]) was found to be 17 nM.
In the case of `Cc1ncc2c(N)nc3cnc(C(=O)N4CCC[C@@H]5Oc6cc(OC(F)(F)F)cc(F)c6[C@@H]54)cc3n12` [Fg-66, (4-amino-1-methylimidazo[1,5-a]pyrido[3,4-e]pyrazin-8-yl)((4aS,9bS)-9-fluoro-7-(trifluoromethoxy)-3,4,4a,9b-tetrahydrobenzofuro[3,2-b]867yridine-1(2H)-yl)methanone], in data set [1], the solubility at 24 h was less than 1 µM. Besides, in data set [2], the apparent permeability from apical to basolateral (Papp A→B) at 2 h, 1 µM worked out at 19.3 ×10⁻⁶ cm/s. In addition, in data set [3], the CC50 at 7 days was 8370 nM. Moreover, in data set [4], the “Human Predicted Hepatocyte CL” value is 4.67 mL/min/kg. Further, the Selectivity in data set [5] is on record as 116. In data set [5] (HCT-116), this molecule returned a plasma-adjusted CC50 (paCC50) of 788 nM. Besides, the 50% cytotoxic concentration (CC50) in data set [5] (setting [6]) came to 72 nM.
`Cc1ncc2c(N)nc3cnc(C(=O)N4CCC[C@@H]5Oc6cc(C(F)(F)F)cc(F)c6[C@@H]54)cc3n12` [Fg-67, (4-amino-1-methylimidazo[1,5-a]pyrido[3,4-e]pyrazin-8-yl)((4aS,9bS)-9-fluoro-7-(trifluoromethyl)-3,4,4a,9b-tetrahydrobenzofuro[3,2-b]pyridin-1(2H)-yl)methanone] showed a solubility at 24 h in data set [1] of 1.7 µM (≈ 0.827 µg/mL). Besides, the apical-to-basolateral permeability (Papp A→B) at 2 h, 1 µM in data set [2] was determined as 18.5 ×10⁻⁶ cm/s. The molecule also gave a cytotoxic concentration (CC50) at 7 days in data set [3] of 4260 nM. In data set [4], the “Human Predicted Hepatocyte CL” value is 4 mL/min/kg. In data set [5], this molecule displayed a Selectivity of 112. In data set [5] (HCT-116), the plasma-adjusted CC50 (paCC50) came out at 402 nM. The cytotoxic concentration (CC50) in data set [5] (setting [6]) was determined as 38 nM.

Source of the values: patent US12448388B2, “PRMT5 inhibitors and uses thereof” (Gilead Sciences, Inc., priority 2023, dated 2025).
